{"source": "patent US9247742B2", "about": "(priority 2012, dated 2016)", "key": {"Magnaporthe oryzae [1]": {"tested_on": "Magnaporthe oryzae", "assay_type": "in vivo", "conditions": "1-day protective; for B % DC: component B alone; for A % DC: component A (777) alone"}, "Magnaporthe oryzae [2]": {"tested_on": "Magnaporthe oryzae", "assay_type": "in vivo", "conditions": "1-day curative/protective; for B % DC: component B alone; for A % DC: component A (777) alone"}}, "note": "Like-named read-outs stand apart in the source and are kept apart here."}
{"smiles": "CO/C=C(/C(=O)OC)c1ccccc1Oc1cc(Oc2ccccc2C#N)ncn1", "note": "[Azoxystrobin, methyl (αE)-2-[[6-(2-cyanophenoxy)-4-pyrimidinyl]oxy]-α-(methoxymethylene)benzeneacetate]", "values": [{"measurement": "B % DC", "setting": "Magnaporthe oryzae [1]; Rate B 0.025 ai ppm", "value": 9, "unit": "%"}, {"measurement": "B % DC", "setting": "Magnaporthe oryzae [1]; Rate B 0.1 ai ppm", "value": 19, "unit": "%"}, {"measurement": "B % DC", "setting": "Magnaporthe oryzae [1]; Rate B 0.4 ai ppm", "value": 30, "unit": "%"}, {"measurement": "B % DC", "setting": "Magnaporthe oryzae [1]; Rate B 1.56 ai ppm", "value": 0, "unit": "%"}]}
{"smiles": "O=C(Nc1ccccc1-c1ccc(Cl)cc1)c1cccnc1Cl", "note": "[Boscalid, 2-chloro-N-(4′-chloro[1,1′-biphenyl]-2-yl)-3-pyridinecarboxamide]", "values": [{"measurement": "B % DC", "setting": "Magnaporthe oryzae [2]; Rate B 400 ai/ppm", "value": 69, "unit": "%"}]}
{"smiles": "CCC1(C(=O)NC(C)c2ccc(Cl)cc2)C(C)C1(Cl)Cl", "note": "(stereo not drawn) [Carpropamid, 2,2-dichloro-N-[1-(4-chlorophenyl)ethyl]-1-ethyl-3-methylcyclopropanecarboxamide]", "values": [{"measurement": "B % DC", "setting": "Magnaporthe oryzae [1]; Rate B 0.1 ai ppm", "value": 2, "unit": "%"}, {"measurement": "B % DC", "setting": "Magnaporthe oryzae [1]; Rate B 0.4 ai ppm", "value": 23, "unit": "%"}]}
{"smiles": "C[C@H]1O[C@H](O[C@H]2[C@H](O)[C@@H](O)[C@@H](O)[C@H](O)[C@@H]2O)[C@@H](N)C[C@@H]1NC(=N)C(=O)O", "note": "[Kasugamycin, 3-O-[2-amino-4-[(carboxylminomethyl)amino]-2,3,4,6-tetradeoxy-α-D-arabino-hexopyranosyl]-D-chiro-inositol]", "values": [{"measurement": "B % DC", "setting": "Magnaporthe oryzae [2]; Rate B 1.56 ai/ppm", "value": 69, "unit": "%"}, {"measurement": "B % DC", "setting": "Magnaporthe oryzae [2]; Rate B 6.25 ai/ppm", "value": 68, "unit": "%"}, {"measurement": "B % DC", "setting": "Magnaporthe oryzae [2]; Rate B 25 ai/ppm", "value": 74, "unit": "%"}]}
{"smiles": "C=CCOC1=NS(=O)(=O)c2ccccc21", "note": "[Probenazole, 3-(2-propenyloxy)-1,2-benzisothiazole 1,1-dioxide]", "values": [{"measurement": "B % DC", "setting": "Magnaporthe oryzae [2]; Rate B 3.12 ai/ppm", "value": 69, "unit": "%"}, {"measurement": "B % DC", "setting": "Magnaporthe oryzae [2]; Rate B 12.5 ai/ppm", "value": 78, "unit": "%"}]}
{"smiles": "Cc1cccc2sc3nncn3c12", "note": "[Tricyclazole, 5-methyl-1,2,4-triazolo[3,4-b]benzothiazole]", "values": [{"measurement": "B % DC", "setting": "Magnaporthe oryzae [2]; Rate B 0.1 ai/ppm", "value": 71, "unit": "%"}, {"measurement": "B % DC", "setting": "Magnaporthe oryzae [1]; Rate B 0.025 ai ppm", "value": 0, "unit": "%"}, {"measurement": "B % DC", "setting": "Magnaporthe oryzae [1]; Rate B 0.1 ai ppm", "value": 0, "unit": "%"}, {"measurement": "B % DC", "setting": "Magnaporthe oryzae [1]; Rate B 0.4 ai ppm", "value": 23, "unit": "%"}]}
{"smiles": "COc1ccnc(C(=O)N[C@H]2COC(=O)[C@H](Cc3ccccc3)[C@@H](OC(=O)C(C)C)[C@H](C)OC2=O)c1OCOC(=O)C(C)C", "note": "[compound 777]", "values": [{"measurement": "A % DC", "setting": "Magnaporthe oryzae [2]; Rate A 0.1 ai/ppm", "value": 28, "unit": "%"}, {"measurement": "A % DC", "setting": "Magnaporthe oryzae [2]; Rate A 0.4 ai/ppm", "value": 50, "unit": "%"}, {"measurement": "A % DC", "setting": "Magnaporthe oryzae [2]; Rate A 1.56 ai/ppm", "value": 67, "unit": "%"}, {"measurement": "A % DC", "setting": "Magnaporthe oryzae [2]; Rate A 6.25 ai/ppm", "value": 81, "unit": "%"}, {"measurement": "A % DC", "setting": "Magnaporthe oryzae [1]; Rate A 0.025 ai ppm", "value": 0, "unit": "%"}, {"measurement": "A % DC", "setting": "Magnaporthe oryzae [1]; Rate A 0.1 ai ppm", "value": 21, "unit": "%"}, {"measurement": "A % DC", "setting": "Magnaporthe oryzae [1]; Rate A 0.25 ai ppm", "value": 0, "unit": "%"}, {"measurement": "A % DC", "setting": "Magnaporthe oryzae [1]; Rate A 0.4 ai ppm", "value": 61, "unit": "%"}]}
